Reference: US7741431B2, “Liposomes containing novel targeting and/or fusogenic peptides, preparations containing them and therapeutic use thereof” (The United States of America as represented by the …, priority 2005, dated 2010)
Entries after “also recorded” stand apart in the source; their conditions may differ.

What was measured:
[1] = tested on: mast cells (RBL-2H3); assay type: cell-based
[2] = tested on: lung epithelial cells (A-549); assay type: cell-based, human
[3] = Liposome fusion assay (Rhodamine B R18 dequenching)
Source text: Liposomes are picked-up by cells by endocytosis and form an endosome. Within a few minutes the pH in the endosome drops to 5 and degradation begins. In order to accelerate the fusion of the liposome with the endosome membrane and release its DNA content into the cytoplasm, fusogenic peptides (Plank et al., 1994, Puyal et al., 1994), triggered by the low pH, are integrated into the liposomes membrane (0.1-2%). The most suitable fusogenic peptide and its concentration in the liposome are selected, using in-vitro fluorescence method (Hoekstra et al., 1984) at different pH levels.
Rhodamine B (R18) quenching curve: Rhodamine is characterized by self-quenching, which increases linearly with increasing concentration of R18. […] A total fusion of the two types of liposomes would result in a reduction of R18 concentration or quenching by ˜50%. Since liposomes also tend to fuse with their own type, this high level of fusion can never be achieved.
Liposomes containing 8 Mol % of R18 are mixed with liposomes conjugated to the fusion peptide at pH 7.4 and the fluorescence is measured using […] at λ=550 nm and emission at λ=580 nm. The pH is adjusted to 5.0 by adding few drops of 1N HCl and the change in fluorescence is measured. The total fluorescence is then determined by treating the mixture with Triton X-100. […]

Row | Substance | binding / targeting to mast cells [1] | binding / targeting to lung epithelial cells [2] | activity as a fusogen [3]
1 | SEQ ID NO: 1: targeting peptide whose sequence derives from endothelin-1, for lung mast cells and lung epithelial cells (CHLDIIW) | efficient targeting peptide; also recorded: high affinity | efficient targeting peptide; also recorded: high affinity | 
2 | SEQ ID NO: 2: fusogenic peptide derived from the amphiphatic, pH-dependent peptide of influenza virus hemagglutinin (CGYWGDIMGEWGDEIFGEIAGFLG) |  |  | highly active
